Measured values: ChEMBL document CHEMBL4177562, “Synthetic ligand promotes gene expression by affecting GC sequence in promoter” (2017)
Active and inactive are the calls of the source. No cut-off for these calls is given here.

Key:
HeLa [1] = test: Upregulation of spindle midzone-related genes (GO:0051233) in human HeLa cells measured at 24 hrs; assay type: functional
HeLa [2] = test: Upregulation of positive regulation of cytokinesis-related genes (GO:0032467) in human HeLa cells measured at 12 to 24 hrs; assay type: functional
HeLa [3] = test: Downregulation of extracellular exosome-related genes (GO:0070062) in human HeLa cells measured at 24 hrs; assay type: functional
HeLa [4] = test: Upregulation of microtubule cytoskeleton-related genes (GO:0015630) in human HeLa cells measured at 24 hrs; assay type: functional
[5] = Binding affinity to TCTT of 5'-Biotinylated-dCAG CGT GTG GTT TTT CTTTTT ACC ACA CGC TG-3' (unknown origin) at 1.25 to 20 nM after 30 secs by SPR analysis
HeLa [6] = test: Upregulation of cytoplasm-related genes (GO:0005737) in human HeLa cells measured at 12 hrs; assay type: functional
[7] = Binding affinity to CGGT of 5'-Biotinylated-dCAG CGT GTG GTT TTC GGTTTT ACC ACA CGC TG-3' (unknown origin) after 30 secs by SPR analysis
[8] = Binding affinity to AAAA of 5'-Biotinylated-dCAG CGT GTG GTT TTA AAATTT ACC ACA CGC TG-3' (unknown origin) at 1.25 to 20 nM after 30 secs by SPR analysis
HeLa [9] = test: Downregulation of primary cilium-related genes (GO:0072372) in human HeLa cells measured at 12 hrs; assay type: functional
[10] = Binding affinity to CACA of 5'-Biotinylated-dCAG CGT GTG GTT TTC ACATTT ACC ACA CGC TG-3' (unknown origin) at 1.25 to 20 nM after 30 secs by SPR analysis
[11] = Binding affinity to TTTA of 5'-Biotinylated-dCAG CGT GTG GTT TTT TTATTT ACC ACA CGC TG-3' (unknown origin) at 1.25 to 20 nM after 30 secs by SPR analysis
[12] = Binding affinity to ATTT of 5'-Biotinylated-dCAG CGT GTG GTT TTA TTTTTT ACC ACA CGC TG-3' (unknown origin) at 1.25 to 20 nM after 30 secs by SPR analysis
HeLa [13] = test: Upregulation of OASL mRNA expression in human HeLa cells at 0.1 uM after 24 hrs by RT-qPCR analysis; assay type: functional, cell-based
HeLa [14] = test: Downregulation of oxidation-reduction process-related genes (GO:0055114) in human HeLa cells measured at 12 to 24 hrs; assay type: functional; parameters: scale not given: the % may be the effect or the level left
HeLa [15] = test: Upregulation of nucleolus-related genes (GO:0005730) in human HeLa cells measured at 24 hrs; assay type: functional
[16] = Binding affinity to TGGC of 5'-Biotinylated-dCAG CGT GTG GTT TTT GGCTTT ACC ACA CGC TG-3' (unknown origin) after 30 secs by SPR analysis
[17] = Binding affinity to GGGG of 5'-Biotinylated-dCAG CGT GTG GTT TTG GGGTTT ACC ACA CGC TG-3' (unknown origin) after 30 secs by SPR analysis
HeLa [18] = test: Upregulation of mitotic nuclear division-related genes (GO:0007067) in human HeLa cells measured at 24 hrs; assay type: functional
HeLa [19] = test: Downregulation of peroxisome-related genes (GO:0005777) in human HeLa cells measured at 12 hrs; assay type: functional
HeLa [20] = test: Downregulation of extracellular region-related genes (GO:0005576) in human HeLa cells measured at 24 hrs; assay type: functional
[21] = Binding affinity to CGGG of 5'-Biotinylated-dCAG CGT GTG GTT TTC GGGTTT ACC ACA CGC TG-3' (unknown origin) after 30 secs by SPR analysis
HeLa [22] = test: Downregulation of cell periphery-related genes (GO:0071944) in human HeLa cells measured at 24 hrs; assay type: functional
HeLa [23] = test: Upregulation of cytoplasm-related genes (GO:0005737) in human HeLa cells measured at 24 hrs; assay type: functional
HeLa [24] = test: Upregulation of nucleus-related genes (GO:0005634) in human HeLa cells measured at 12 hrs; assay type: functional
HeLa [25] = test: Upregulation of IFIT2 mRNA expression in human HeLa cells at 0.1 uM after 24 hrs by RT-qPCR analysis; assay type: functional, cell-based
HeLa [26] = test: Downregulation of skin development-related genes (GO:0043588) in human HeLa cells measured at 12 to 24 hrs; assay type: functional
HeLa [27] = test: Downregulation of proteinaceous extracellular matrix-related genes (GO:0005578) in human HeLa cells measured at 24 hrs; assay type: functional
HeLa [28] = test: Upregulation of nucleoplasm-related genes (GO:0005654) in human HeLa cells measured at 12 hrs; assay type: functional
[29] = Binding affinity to GGGC of 5'-Biotinylated-dCAG CGT GTG GTT TTG GGCTTT ACC ACA CGC TG-3' (unknown origin) after 30 secs by SPR analysis
HeLa [30] = test: Upregulation of GCNA mRNA expression in human HeLa cells at 0.1 uM after 24 hrs by RT-qPCR analysis; assay type: functional, cell-based
HeLa [31] = test: Upregulation of cytoplasm-related genes (GO:0005737) in human HeLa cells measured at 12 to 24 hrs; assay type: functional
[32] = Binding affinity to TTTT of 5'-Biotinylated-dCAG CGT GTG GTT TTT TTTTTT ACC ACA CGC TG-3' (unknown origin) at 1.25 to 20 nM after 30 secs by SPR analysis
HeLa [33] = test: Upregulation of transcription/DNA-templated-related genes (GO:0006351) in human HeLa cells measured at 12 hrs; assay type: functional
HeLa [34] = test: Upregulation of spindle midzone-related genes (GO:0051233) in human HeLa cells measured at 12 to 24 hrs; assay type: functional
HeLa [35] = test: Downregulation of COQ9 mRNA expression in human HeLa cells at 0.1 uM after 24 hrs by RT-qPCR analysis; assay type: functional, cell-based
HeLa [36] = test: Downregulation of mitochondrial matrix-related genes (GO:0005759) in human HeLa cells measured at 12 hrs; assay type: functional
HeLa [37] = test: Downregulation of ciliary tip-related genes (GO:0097542) in human HeLa cells measured at 12 hrs; assay type: functional
HeLa [38] = test: Downregulation of apical plasma membrane-related genes (GO:0016324) in human HeLa cells measured at 12 to 24 hrs; assay type: functional
HeLa [39] = test: Upregulation of SULT4A1 mRNA expression in human HeLa cells at 0.1 uM after 24 hrs by RT-qPCR analysis; assay type: functional, cell-based
HeLa [40] = test: Downregulation of STK39 mRNA expression in human HeLa cells at 0.1 uM after 24 hrs by RT-qPCR analysis; assay type: functional, cell-based
HeLa [41] = test: Downregulation of CERS5 mRNA expression in human HeLa cells at 0.1 uM after 24 hrs by RT-qPCR analysis; assay type: functional, cell-based
HeLa [42] = test: Upregulation of negative regulation of inclusion body assembly-related genes (GO:0090084) in human HeLa cells measured at 12 hrs; assay type: functional
[43] = Binding affinity to GCGG of 5'-Biotinylated-dCAG CGT GTG GTT TTG C(Me)GGTTT ACC ACA CGC TG-3' (unknown origin) at 1.25 to 20 nM after 30 secs by SPR analysis
HeLa [44] = test: Upregulation of NBPF10 mRNA expression in human HeLa cells at 0.1 uM after 24 hrs by RT-qPCR analysis; assay type: functional, cell-based
HeLa [45] = test: Downregulation of serine C-palmitoyltransferase complex-related genes (GO:0017059) in human HeLa cells measured at 12 hrs; assay type: functional
[46] = Binding affinity to GCGG of 5'-Biotinylated-dCAG CGT GTG GTT TTG CGGTTT ACC ACA CGC TG-3' (unknown origin) after 30 secs by SPR analysis
HeLa [47] = test: Downregulation of progesterone metabolic process-related genes (GO:0042448) in human HeLa cells measured at 24 hrs; assay type: functional

Cc1ccc2ccc(NC(=O)OCCCN(CCCCCCCCN(CCCOC(=O)Nc3ccc4ccc(C)nc4n3)CCCOC(=O)Nc3ccc4ccc(C)nc4n3)CCCOC(=O)Nc3ccc4ccc(C)nc4n3)nc2n1 gave an Activity (HeLa [1]) of 3.08%, an Activity (HeLa [2]) of 5.55% and an Activity (HeLa [3]) of 24.49%. For the same compound, the Activity (HeLa [4]) was 4.62%, the Activity [5] was “inactive” and the Activity (HeLa [6]) was 34.56%. The Activity [7] was “Dose-dependent effect”, the Activity [8] was “inactive” and the Activity (HeLa [9]) was 2.14%. For the same compound, the Activity [10] was “inactive”, the Activity [11] was “inactive” and the Activity [12] was “inactive”. For the same compound, the Activity (HeLa [13]) was “Active”, the Activity (HeLa [14]) was 16.67% and the Activity (HeLa [15]) was 9.23%. For the same compound, the Activity [16] was “Dose-dependent effect”, the Activity [17] was “Dose-dependent effect” and the Activity (HeLa [18]) was 7.69%. For the same compound, the Activity (HeLa [19]) was 2.14%, the Activity (HeLa [20]) was 22.45% and the Activity [21] was “Dose-dependent effect”. The Activity (HeLa [22]) was 4.08%, the Activity (HeLa [23]) was 33.85% and the Activity (HeLa [24]) was 43.78%. For the same compound, the Activity (HeLa [25]) was “Active”, the Activity (HeLa [26]) was 6.67% and the Activity (HeLa [27]) was 12.24%. The Activity (HeLa [28]) was 26.27%, the Activity [29] was “Dose-dependent effect” and the Activity (HeLa [30]) was “Active”. The Activity (HeLa [31]) was 33.33%, the Activity [32] was “inactive” and the Activity (HeLa [33]) was 20.28%. The Activity (HeLa [34]) was 5.56%, the Activity (HeLa [35]) was “Active” and the Activity (HeLa [36]) was 3.74%. The Activity (HeLa [37]) was 1.6%, the Activity (HeLa [38]) was 10% and the Activity (HeLa [39]) was “Active”. The Activity (HeLa [40]) was “Active”, the Activity (HeLa [41]) was “Active” and the Activity (HeLa [42]) was 2.3%. For the same compound, the Activity [43] was “inactive”, the Activity (HeLa [44]) was “Active” and the Activity (HeLa [45]) was 1.07%. For the same compound, the Activity [46] was “Dose-dependent effect” and the Activity (HeLa [47]) was 4.08%.
